Each structure is given as a SMILES string. “And” between values parts separate entries of the source, which are not always exact repeats. Equal entries are not always repeated.

In test [1] the target is receptor tyrosine kinase c-Met (Homo sapiens, UniProt P08581). Kind of test: In vitro c-Met kinase inhibitory activity. The class given is biochemical. The following applies: two values per compound; for inhibition at 0.001 µM / inhibition at 0.1 µM / inhibition at 0.01 µM: read-out: c-Met Inhibitory rate (%). From the text:
Experimental Example 3: Study of In Vitro c-Met Kinase Inhibitory Activity
Since the screening results of 369 kinase profiles of compound DC621044 has shown that the compound has a certain inhibitory activity on c-Met. We further screened some compounds for their inhibitory activity on c-Met kinase.

A further test concerns BaF3/TEL-AXL cells. The experiment in a line: Proliferation of BaF3/TEL-AXL cells. The class given is cell-based. Particulars: two values per compound; for inhibition at 0.001 µM / inhibition at 0.01 µM / inhibition at 0.1 µM: BaF3/TEL-AXL, read-out: BaF3/TEL-AXL proliferation Inhibitory rate (%). From the text:
Experimental Example 4: Effect of the Compound on the Proliferation Effect of BaF3/TEL-AXL Cells
Based on the above-mentioned enzyme activity research results, we further explored the effect of the compound on cell proliferation mediated by receptor tyrosine kinase AXL.

Test [2] concerns the target T1, receptor tyrosine kinase AXL (Homo sapiens, UniProt P30530).
T1 construct: 50 μL of AXL kinase domain recombinant protein diluted in reaction buffer was added to start the reaction; made in house; host or cells: insect cells (baculovirus expression system)
T1 sequence (P30530 536-807 limits assumed): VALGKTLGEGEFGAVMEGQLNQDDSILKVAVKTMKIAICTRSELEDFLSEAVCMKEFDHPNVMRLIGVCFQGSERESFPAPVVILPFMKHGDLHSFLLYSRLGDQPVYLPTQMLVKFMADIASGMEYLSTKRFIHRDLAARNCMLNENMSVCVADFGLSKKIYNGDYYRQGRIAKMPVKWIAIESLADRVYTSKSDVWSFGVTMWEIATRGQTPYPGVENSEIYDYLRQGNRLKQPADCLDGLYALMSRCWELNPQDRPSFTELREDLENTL
The experiment in a line: Enzyme activity of receptor tyrosine kinase AXL (ELISA). The class given is biochemical. The following applies: read-out: AXL activity Inhibitory rate(%); for inhibition at 0.001 µM: 1 nM; for inhibition at 0.01 µM: 10 nM; for inhibition at 0.1 µM: 100 nM. As to the method: Detection method: Enzyme-linked immunosorbent assay (ELISA)
Tested receptor tyrosine kinase: AXL
The full-wavelength microplate reader for experiment reading was a product of Molecular Device, model: SpectraMax 190; the experiment water was distilled water produced by Sinopharm Group.
Compound preparation: The compounds were centrifuged at 12,000 g for 5 min, and DMSO was added to prepare a 10^−2M stock solution, vortexed evenly and sonicated for 10 min for use, and stored at −40° C. During the test, the compound was diluted from the stock solution to 100 times the tested concentration with DMSO (the DMSO concentration in the system was 1%).
1. […] Discard the liquid from the well. The plate was washed and washed three times with T-PBS (0.1% Tween-20 in potassium-free PBS, 200 μL/well) for 5 minutes each time.
2. 49 μL of ATP solution diluted with reaction buffer (50 mM HEPES pH 7.4, 50 mM MgCl2, 0.5 mM MnCl2, 0.2 mM Na3VO4, 1 mM DTT) was added to each well, and […] of the tested compound was added to each well, and then 50 μL of AXL kinase domain recombinant protein diluted in reaction buffer was added to start the reaction. Two control wells without ATP were added in each experiment. (100 rpm) Reacted in 37° C. shaker for 1 hour. Discard the liquid from the well, and the plate was washed with T-PBS for three times.
3. […] Discard the liquid from the well, and the plate was washed with T-PBS for three times.
4. The horseradish peroxidase-labeled goat anti-mouse second antibody dilution (antibody diluted 1:2000 with BSA 5 mg/mL in T-PBS), 100 μL/well, and reacted in 37° C. shaker for 0.5 hours. Discard the liquid from the well, and the plate was washed with T-PBS for three times.
6. The reaction was quenched with 50 μL/well 2M […], and read at 490 nm using a tunable microplate reader VERSAmax.
The IC50 values were obtained by four-parameter regression analysis using the software supplied with the microplate reader.

Chain of receptor tyrosine kinase c-Met (P08581 25-1390): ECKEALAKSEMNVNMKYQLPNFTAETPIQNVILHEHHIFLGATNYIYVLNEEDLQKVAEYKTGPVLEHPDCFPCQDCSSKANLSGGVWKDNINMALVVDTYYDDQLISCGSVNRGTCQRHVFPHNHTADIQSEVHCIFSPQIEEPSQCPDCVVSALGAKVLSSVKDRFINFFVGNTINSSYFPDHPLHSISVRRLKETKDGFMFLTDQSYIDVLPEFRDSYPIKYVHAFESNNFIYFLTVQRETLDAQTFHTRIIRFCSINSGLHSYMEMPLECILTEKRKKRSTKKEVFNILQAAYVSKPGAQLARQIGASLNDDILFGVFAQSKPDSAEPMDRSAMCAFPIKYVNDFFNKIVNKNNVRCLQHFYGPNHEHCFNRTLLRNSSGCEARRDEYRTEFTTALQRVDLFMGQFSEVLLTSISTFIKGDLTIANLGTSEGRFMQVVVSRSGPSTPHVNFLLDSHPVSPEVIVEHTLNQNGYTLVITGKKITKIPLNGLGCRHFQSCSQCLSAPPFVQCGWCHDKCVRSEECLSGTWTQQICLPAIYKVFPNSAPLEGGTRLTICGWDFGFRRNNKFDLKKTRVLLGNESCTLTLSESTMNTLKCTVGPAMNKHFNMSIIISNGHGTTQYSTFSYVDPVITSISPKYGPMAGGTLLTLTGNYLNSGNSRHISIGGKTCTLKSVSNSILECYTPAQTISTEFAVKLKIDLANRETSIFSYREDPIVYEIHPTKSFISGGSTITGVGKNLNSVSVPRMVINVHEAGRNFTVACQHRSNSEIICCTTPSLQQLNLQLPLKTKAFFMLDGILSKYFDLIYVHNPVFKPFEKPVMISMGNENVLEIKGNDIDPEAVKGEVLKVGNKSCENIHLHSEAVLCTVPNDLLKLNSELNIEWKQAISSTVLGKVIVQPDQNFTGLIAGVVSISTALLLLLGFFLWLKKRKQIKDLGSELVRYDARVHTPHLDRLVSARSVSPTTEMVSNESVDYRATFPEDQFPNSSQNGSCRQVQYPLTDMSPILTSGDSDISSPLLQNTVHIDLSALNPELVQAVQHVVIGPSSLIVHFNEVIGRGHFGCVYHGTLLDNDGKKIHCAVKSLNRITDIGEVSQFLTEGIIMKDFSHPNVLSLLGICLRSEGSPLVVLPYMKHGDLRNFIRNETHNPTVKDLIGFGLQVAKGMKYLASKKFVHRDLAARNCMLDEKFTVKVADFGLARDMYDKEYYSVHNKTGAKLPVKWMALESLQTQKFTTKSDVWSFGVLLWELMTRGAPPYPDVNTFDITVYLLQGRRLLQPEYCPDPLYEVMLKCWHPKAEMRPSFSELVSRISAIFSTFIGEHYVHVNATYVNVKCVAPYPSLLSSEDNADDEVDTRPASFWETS

Take `COCCOc1cc2ncnc(Oc3ccc(NC(=O)c4c5n(n(-c6cc(F)ccc6F)c4=O)CCCC5)c(F)c3)c2cc1OCCOC` [DC621054, 1-(2,5-difluorophenyl)-N-(4-((6,7-bis(2-methoxyethoxy)quinazolin-4-yl)oxy)-2-fluorophenyl)-2-oxo-1,2,4,5,6,7-hexahydropyrazolo[1,5-a]pyridine-3-formamide]: the “c-Met Inhibitory rate (%)” value in test [1] (1 nM, 0.001 µM) was 60.0%; in test [1] (10 nM, 0.01 µM), 48.9% and 69.6%; in test [1] (100 nM, 0.1 µM), 100%. Further, the inhibition at 0.001 µM in test [1] (1 nM) is 61.1%; with BaF3/TEL-AXL cells (1 nM), 79.6%; in test [2], 12.2%. In addition, the inhibition at 0.1 µM in test [1] (100 nM) was 94.1%; in the test on BaF3/TEL-AXL cells (100 nM), 84.7%; in test [2], 95.9%. Moreover, the “BaF3/TEL-AXL proliferation Inhibitory rate (%)” value in the test with BaF3/TEL-AXL cells (1 nM, 0.001 µM) worked out at 81.8%; in the test on BaF3/TEL-AXL cells (10 nM, 0.01 µM), 82.5%; with BaF3/TEL-AXL cells (100 nM, 0.1 µM), 86.1%. The inhibition at 0.01 µM came to 82.8% in the test on BaF3/TEL-AXL cells (10 nM) and 58.2% in test [2].

Consider `COCCOc1cc2ncnc(Oc3ccc(NC(=O)c4c5n(n(-c6ccccc6F)c4=O)CCCC5)c(F)c3)c2cc1OCCOC` [DC621057, N-(4-((6,7-bis(2-methoxyethoxy)quinazolin-4-yl)oxy)-2-fluorophenyl)-1-(2-fluorophenyl)-2-oxo-1,2,4,5,6,7-hexahydropyrazolo[1,5-a]pyridine-3-formamide], for which the “c-Met Inhibitory rate (%)” value is 51.3% in test [1] (1 nM, 0.001 µM); 64.0% in test [1] (10 nM, 0.01 µM); 95.9% in test [1] (100 nM, 0.1 µM). For the same compound, the inhibition at 0.001 µM was determined as 34% in test [1] (1 nM), 69.5% in the test with BaF3/TEL-AXL cells (1 nM) and 16% in test [2]. The inhibition at 0.01 µM was determined as 55.2% in test [1] (10 nM), 83.2% with BaF3/TEL-AXL cells (10 nM) and 55.1% in test [2]. For the same compound, the inhibition at 0.1 µM in test [1] (100 nM) turned out to be 94.6%; with BaF3/TEL-AXL cells (100 nM), 87.5%; in test [2], 91.9%. The “BaF3/TEL-AXL proliferation Inhibitory rate (%)” value is 76.6% in the test with BaF3/TEL-AXL cells (1 nM, 0.001 µM) and 86.0% in the test with BaF3/TEL-AXL cells (100 nM, 0.1 µM).

For `COCCOc1cc2ncnc(Oc3ccc(NC(=O)c4c5n(n(-c6ccc(F)cc6)c4=O)CCCC5)c(F)c3)c2cc1OCCOC` [DC621060, N-(4-((6,7-bis(2-methoxyethoxy)quinazolin-4-yl)oxy)-2-fluorophenyl)-1-(4-fluorophenyl)-2-oxo-1,2,4,5,6,7-hexahydropyrazolo[1,5-a]pyridine-3-formamide], the “c-Met Inhibitory rate (%)” value amounted to 58.1% in test [1] (10 nM, 0.01 µM) and 95.4% in test [1] (100 nM, 0.1 µM). Besides, the inhibition at 0.01 µM is 43.9% in test [1] (10 nM), 71% in the test on BaF3/TEL-AXL cells (10 nM) and 54.4% in test [2]. Moreover, the inhibition at 0.1 µM in test [1] (100 nM) was 91.9%; in the test with BaF3/TEL-AXL cells (100 nM), 85.4%; in test [2], 84.2%. Besides, the “BaF3/TEL-AXL proliferation Inhibitory rate (%)” value in the test on BaF3/TEL-AXL cells (1 nM, 0.001 µM) was determined as 66.3%; in the test with BaF3/TEL-AXL cells (10 nM, 0.01 µM) it was 73.4%; with BaF3/TEL-AXL cells (100 nM, 0.1 µM), 85.3%. For the same compound, the inhibition at 0.001 µM in the test on BaF3/TEL-AXL cells (1 nM) turned out to be 64.5%; in test [2], 21.5%.

Consider `O=C(Nc1ccc(Oc2ncnc3cc4c(cc23)OCCOCCOCCO4)c(F)c1)c1c2n(n(-c3cc(F)ccc3F)c1=O)CCCC2` [DC621063, 1-(2,5-difluorophenyl)-N-(3-fluoro-4-((7,8,10,11,13,14-hexahydro-[1,4,7,10]tetraoxacyclododecane[2,3-g]quinazolin-4-yl)oxy)phenyl)-2-oxo-1,2,4,5,6,7-hexahydropyrazolo[1,5-a]pyridine-3-formamide], for which the “c-Met Inhibitory rate (%)” value is on record as 32.4% in test [1] (1 nM, 0.001 µM); 56.2% in test [1] (10 nM, 0.01 µM); 99.2% in test [1] (100 nM, 0.1 µM). The values for the inhibition at 0.001 µM (in test [1] (1 nM); in the test with BaF3/TEL-AXL cells (1 nM); in test [2]) were 17.7%, 47.8% and 11.5%, respectively. Further, the values for the inhibition at 0.01 µM (in test [1] (10 nM); in the test on BaF3/TEL-AXL cells (10 nM); in test [2]) were 46.4%, 67.2% and 60.5%, respectively. Further, the inhibition at 0.1 µM in test [1] (100 nM) stood at 94.8%; in the test on BaF3/TEL-AXL cells (100 nM) it was 82.3%; in test [2], 91.8%. Further, the “BaF3/TEL-AXL proliferation Inhibitory rate (%)” value turned out to be 61.0% in the test on BaF3/TEL-AXL cells (1 nM, 0.001 µM); 66.0% in the test with BaF3/TEL-AXL cells (10 nM, 0.01 µM); 78.2% in the test on BaF3/TEL-AXL cells (100 nM, 0.1 µM).

These data come from patent US12497394B2, “Fused-cyclic pyrazolone formamide compound and preparation method therefor, pharmaceutical composition and use thereof” (SHANGHAI INSTITUTE OF MATERIA MEDICA, CHINESE ACADEMY OF …, priority 2018, dated 2025).
